The values below are quoted from earlier work in patent publication US20110306626A1, “IMIDAZOLINONE DERIVATIVES AS CGRP RECEPTOR ANTAGONISTS” (priority 2008, published 2011).

Ends that are not written are not given here.

Data set [1] relates to facial blood flow. Conditions: rat, trigeminal ganglion stimulation (Escott et al. 1995).
Data set [2] concerns middle meningeal artery. Conditions: rats, electrical stimulation of the dura mater, prior administration (Williamson et al. 1997).
Data set [3] concerns acute attacks of migraine. The conditions noted are these: clinical trials (Olesen et al. 2004).
Data set [4] has as its system headache induced by CGRP infusion. Conditions: control group (Petersen et al. 2005).
Data set [5] has as its system facial blood flow. The conditions noted are these: marmoset, electrical stimulation of the trigeminal ganglion (Doods et al. 2000).

Take “CGRP(8-37): a peptide CGRP antagonist; fragment of CGRP that lacks seven N-terminal amino acid residues (VTHRLAGLLSRSGGVVKNNFVPTNVGSKAF; ends and bridges not checked; UniProt P06881 90-119, looked up, fragment)”: the “increase of facial blood flow” value in data set [1] is “inhibited”. In addition, the “increase of the diameter of the middle meningeal artery” value in data set [2] is “blocked”.

Turning to `NCCCC[C@H](NC(=O)[C@@H](Cc1cc(Br)c(O)c(Br)c1)NC(=O)N1CCC(N2Cc3ccccc3NC2=O)CC1)C(=O)N1CCN(c2ccncc2)CC1` [BIBN4096BS], the “treatment of acute attacks of migraine” value in data set [3] was “effective in treating acute attacks of migraine”. The “prevention of headache induced by CGRP infusion” value in data set [4] was “able to prevent headache induced by CGRP infusion”. Further, the “increase in facial blood flow” value in data set [5] is “could be blocked”.
